Results as given in patent USRE47351E1 (Gilead Sciences, Inc., priority 1999, dated 2019).
Where two headings read alike, the source gives them in different places. Each block holds one molecule with its values, some of them ahead of it.

Key:
[1] = tested on: A2A AdoR; test: Coronary blood flow and reversal time in open-chest anesthetized pigs
Experimental: Farm pigs weighing 22-27 kg were used in this study.
Anesthesia was anesthetized with ketamine (20 mg/kg, i.m.) and sodium pentobarbital (15-18 mg/kg i.v.). Anesthesia was maintained with additional sodium pentobarbital (1.5-2 mg/kg, i.v.) every 15-20 minutes. Ventilation was maintained via a tracheotomy using a mixture of room air and 100% O2. Tidal volume, respiratory rate and fraction of O2 in inspired air were adjusted to maintain normal arterial blood gas (ABG) and pH values. […] Lactate Ringers solution was administered via an ear or femoral vein, at 5-7 ml/kg/min after a initial bolus of 300-400 ml. A catheter was inserted into the femoral artery to monitor arterial blood pressure and to obtain ABG samples.
The heart was exposed through a median stemotomy, and suspended in a pericardial cradle. Left ventricular pressure (LVP) was measured with a 5F high fidelity pressure sensitive tip transducer (Millar Instrunents, Houston, Tex.) placed in the left ventricular cavity via the apex and secured with a purse string suture. A segment of the left anterior descending coronary artery (LAD), proximal to the origin of the first diagonal branch, was dissected free of, surrounding tissue. A transit time perivascular flow probe (Transonic Systems Inc., Ithaca, N.Y.) was placed around this segment to measure coronary blood flow (CBF). Proximal to the flow probe a 24 g modified angiocatheter was inserted for intracoronary infusions. […] A2A AdoR agonists were dissolved in DMSO to produce stock concentrations of 1-5 mM, which were diluted in 0.9% saline and infused at rates of 1-1.5 ml/min. The A2A AdoR agonists were administered intracoronary. To maintain blood pressure constant, phenylephrine was administered intravenously. The phenylephrine stock solution (30 mM) was prepared in distilled water.
Prior to initiating the experiment, a 30-minute stabilization period followed the completion of all instrumentation. […] The time to recovery of 50% (t 0.5) and 90% (t0.9) of baseline CBF were recorded. Ten to 15 minutes after CBF returned to pre-drug values a second infusion with a different agonist was started. […] The effect of a maximum of three different agonists was determined in each experiment.

[2] = molecular target: A1 AdoR (Rattus norvegicus (Rat), UniProt P25099); test: A-V nodal conduction time (negative dromotropic effect) in rat isolated perfused hearts; settings: Compound 16 0.1-30 μM, CVT510 100-400 nM
Sequence of A1 AdoR (Rattus norvegicus (Rat), UniProt P25099) (P25099 whole entry, the tested form may be a part): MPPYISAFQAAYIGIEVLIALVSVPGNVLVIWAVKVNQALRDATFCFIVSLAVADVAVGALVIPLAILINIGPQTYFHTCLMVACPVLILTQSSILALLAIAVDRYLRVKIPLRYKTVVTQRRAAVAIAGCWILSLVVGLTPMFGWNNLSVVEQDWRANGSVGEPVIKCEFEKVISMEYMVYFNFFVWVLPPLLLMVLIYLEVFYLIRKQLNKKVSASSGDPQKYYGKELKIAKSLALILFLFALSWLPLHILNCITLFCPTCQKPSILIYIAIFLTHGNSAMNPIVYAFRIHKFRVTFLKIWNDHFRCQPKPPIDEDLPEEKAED
Experimental: (§1) In experiments in which A1 adenosine receptor-mediated negative dromotropic effect was measured, atrial and ventricular surface electrograms were recorded during constant atrial pacing.
(§2) A1 adenosine receptor-mediated depression of A-V nodal conduction time (negative dromotropic effect) was measured. Atrial and ventricular surface electrograms in rats and His bundle electrogram in guinea pigs, were recorded during constant atrial pacing.
(§3) Hearts were instrumented for continuous recording of coronary perfusion pressure (A2A response) and atrioventricular (A-V) conduction time or S-H interval (A1 response).

[3] = molecular target: A2A adenosine receptor (Rattus norvegicus (Rat), UniProt P30543); test: Reversal time of coronary vasodilation in rat isolated perfused hearts; settings: bolus injection
Sequence of A2A adenosine receptor (P30543 whole entry, the tested form may be a part): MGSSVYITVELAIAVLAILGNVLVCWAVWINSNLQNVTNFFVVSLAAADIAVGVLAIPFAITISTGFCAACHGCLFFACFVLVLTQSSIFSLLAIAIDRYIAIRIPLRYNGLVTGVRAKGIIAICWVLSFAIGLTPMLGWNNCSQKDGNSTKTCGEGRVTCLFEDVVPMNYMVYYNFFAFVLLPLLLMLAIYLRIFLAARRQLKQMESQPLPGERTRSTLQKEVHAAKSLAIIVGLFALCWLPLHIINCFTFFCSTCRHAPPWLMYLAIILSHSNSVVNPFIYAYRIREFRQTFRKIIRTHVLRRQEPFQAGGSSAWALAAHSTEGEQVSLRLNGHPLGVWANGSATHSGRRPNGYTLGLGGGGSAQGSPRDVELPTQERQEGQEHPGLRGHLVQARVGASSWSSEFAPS
Experimental: Adult Sprague Dawley rats of either sex weighing from 230 to 260 grams were used in this study. Animals were anesthetized by peritoneal injection of a cocktail containing ketamine and xylazine (ketamine 100 mg, xylazine 20 mg/ml). The chest was opened and the heart quickly removed. The heart was briefly rinsed in ice-cold Krebs-Henseleit solution (see below), and the aorta cannulated. […] The heart was electrically paced at a fixed cycle length of 340 ms (250 beats/min) using a bipolar electrode place on the left atrium. The electrical stimuli were generated by a Grass stimulator (Model S48, W. Warwick, R.I.) and delivered through a Stimuli Isolation Unit (Model SIU5, Astro-Med, Inc., N.Y.) as square-wave pulses of 3 msec in duration and amplitude of at least twice the threshold intensity.
Coronary perfusion pressure (CPP) was measured using a pressure transducer, connected to the aortic cannula via a T-connector positioned approximately 3 cm above the heart Coronary perfusion pressure was monitored throughout the experiment and recorded either on a chart recorder (Gould Recorder ^2200S) or a computerized recording system (PowerLab/4S, ADInstruments Pty Ltd, Australia). Only hearts with CPP ranging from 60 to 85 mmHg (in the absence of drugs) were used in the study.
Protocol A: Bolus injections. […] The times to 50% (t 0.5) and 90%/o (t 0.9) reversal of the decrease in CPP were measured. Each heart was exposed to a maximum of three vasodilators.
Protocol B: Continuous infusion. […] The times to 50% (t 0.5) and 90% (t 0.9) reversal of the decreases in CPP were measured from the time at which the infusion of the agonists was stopped. […] In addition, the duration of the injection was varied according to the volume of the boluses such as 10, 20 and 30 sec for 100, 200 and 300 μl boluses respectively. […] Boluses of various agonists were injected into the perfusion line of rat isolated perfused hearts (n=4 to 6 for each agonist) and the time to 90% (t0.9) reversal of the decrease in CPP measured.

[4] = molecular target: A2A receptor (Sus scrofa, UniProt K9IW67); test: A2A receptor affinity in pig striatum membrane prep (tritiated ZM 241385 displacement); format: binding
Sequence of A2A receptor (K9IW67 1-409): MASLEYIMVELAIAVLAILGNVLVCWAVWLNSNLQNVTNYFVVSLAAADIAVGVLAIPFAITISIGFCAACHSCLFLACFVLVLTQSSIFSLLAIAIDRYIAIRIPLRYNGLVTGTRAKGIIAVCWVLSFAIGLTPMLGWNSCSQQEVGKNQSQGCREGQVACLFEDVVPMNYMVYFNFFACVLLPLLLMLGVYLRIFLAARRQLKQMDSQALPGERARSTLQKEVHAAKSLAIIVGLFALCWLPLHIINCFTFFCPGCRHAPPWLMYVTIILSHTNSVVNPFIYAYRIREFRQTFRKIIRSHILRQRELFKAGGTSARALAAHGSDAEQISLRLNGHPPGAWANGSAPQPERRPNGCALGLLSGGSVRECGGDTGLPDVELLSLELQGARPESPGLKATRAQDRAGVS
Experimental: Compounds of this invention were assayed to determine their affinity for the A2A receptor in a pig striatum membrane prep. […]. To the pig membranes was added 2 μL of serially diluted DMSO stock solution of the compounds of this invention at concentrations ranging from 10 nM to 100 microM or the control received 2 microL of DMSO alone, then the antagonist ZM 241385 in Tris buffer (50 mM, pH of 7.4) was added to achieve a final concentration of 2 nM. After incubation at 23° C. for 2 h, then the solutions were filtered using a membrane harvester using multiple washing of the membranes (3×). The filter disks were counted in scintillation cocktail to determine the amount of displacement of tritiated ZM displaced by the compounds of this invention. Greater than a 5 point curve was used to generate Ki's and the number of experiments is indicated in the column marked in Table 1 below.

[5] = molecular target: human A2BAdoR (Homo sapiens (Human), UniProt P29275); test: Competition for [3H]CPX binding sites on HEK-hA2BAdoR membranes; settings: compound at 10 μM
Sequence of human A2BAdoR (P29275 whole entry): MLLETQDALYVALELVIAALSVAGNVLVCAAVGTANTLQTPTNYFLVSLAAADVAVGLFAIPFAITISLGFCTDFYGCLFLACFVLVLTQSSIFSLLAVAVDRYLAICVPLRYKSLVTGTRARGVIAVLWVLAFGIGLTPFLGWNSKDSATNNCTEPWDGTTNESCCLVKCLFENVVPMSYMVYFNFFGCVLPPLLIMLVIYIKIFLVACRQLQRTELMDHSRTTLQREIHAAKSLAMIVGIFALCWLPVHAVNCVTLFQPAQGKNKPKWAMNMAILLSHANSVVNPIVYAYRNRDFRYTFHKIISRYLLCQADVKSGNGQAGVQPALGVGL
Experimental: (§4) Cell culture and membrane preparation-PC12 cells were obtained from the American Type Culture Collection and grown in DMEM with 5% fetal bovine serum, 10% horse serum, 0.5 mmol/L L-glutamine, 100 U/mL penicillin, 0.1 mg/mL streptomycin, and 2.5 μg/mL amphotericin. HEK-293 cells stably expressing recombinant human A2BAdoRs (HEK-hA2BAdoR) were grown in DMEM supplemented with 10% fetal bovine serum and 0.5 mg/mL G-418. CHOK1 cells stably expressing the recombinant human A1AdoR (CHO-hA1AdoR) and A3AdoR (CHO-hA3AdoR) were grown as monolayers on 150-mm plastic culture dishes in Ham's F-12 media supplemented with 10% fetal bovine serum in the presence of 0.5 mg/mL G-418. Cells were cultured in an atmosphere of 5% CO2/95% air maintained at 37° C.
(§5) To make membranes, cells were detached from the culture plates into ice-cold 50 mmol/L Tris-HCl buffer (pH7.4). […] The protein concentration of membrane suspensions was determined using the Bradford method (Bio-Rad) with bovine serum as standards. […]
(§6) The affinity ([…]) of various CVT compounds for the A1 and A2A adenosine receptor were determined by their potency to compete for [^3H]CPX (A1) or [^3H]ZM241385 (A2A) binding sites on membranes derived from CHO-hA1AdoR, PC12 or HEK-HA2AAdoR cells. […] The affinity of selected compounds for A2B and A3 receptors were assessed by their potencies to compete for [^3H] […]

[6] = molecular target: human A3AdoR (Homo sapiens (Human), UniProt P0DMS8); test: Competition for [125I]ABMECA binding sites on CHO-hA3AdoR membranes; settings: compound at 10 μM
Sequence of human A3AdoR (P0DMS8 whole entry): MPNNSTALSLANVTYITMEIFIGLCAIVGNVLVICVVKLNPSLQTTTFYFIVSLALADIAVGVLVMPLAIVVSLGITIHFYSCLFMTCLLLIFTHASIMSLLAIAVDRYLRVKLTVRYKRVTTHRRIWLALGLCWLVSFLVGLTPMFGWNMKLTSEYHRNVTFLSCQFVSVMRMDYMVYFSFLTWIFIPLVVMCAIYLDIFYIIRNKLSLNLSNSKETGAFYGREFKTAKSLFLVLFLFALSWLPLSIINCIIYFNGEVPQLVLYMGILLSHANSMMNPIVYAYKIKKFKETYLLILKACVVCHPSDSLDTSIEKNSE
Experimental: as §4, §5, §6

[7] = molecular target: human A1AdoR (Homo sapiens (Human), UniProt P30542); test: Competition binding, [3H]DPCPX/[3H]CPX sites on CHO-hA1AdoR cell membranes; settings: in presence of Gpp(NH)p 100 μM
Sequence of human A1AdoR (P30542 whole entry): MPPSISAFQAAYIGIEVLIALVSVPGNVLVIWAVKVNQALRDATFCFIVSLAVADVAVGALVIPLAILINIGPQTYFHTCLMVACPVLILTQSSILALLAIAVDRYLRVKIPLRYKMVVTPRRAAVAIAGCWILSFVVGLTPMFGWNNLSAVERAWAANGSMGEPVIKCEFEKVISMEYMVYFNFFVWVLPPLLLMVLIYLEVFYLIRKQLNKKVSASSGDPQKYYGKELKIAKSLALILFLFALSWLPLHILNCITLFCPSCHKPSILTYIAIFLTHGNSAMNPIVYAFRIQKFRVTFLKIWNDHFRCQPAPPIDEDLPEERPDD

[8] = molecular target: A2A AdoR (Rattus norvegicus (Rat), UniProt P30543)
Sequence of A2A AdoR (Rattus norvegicus (Rat), UniProt P30543) (P30543 whole entry): as the sequence (P30543 whole entry, the tested form may be a part) above
From the text: as §3

[9] = molecular target: A2A AdoR (Cavia porcellus (Guinea pig), UniProt P46616)
Sequence of A2A AdoR (Cavia porcellus (Guinea pig), UniProt P46616) (P46616 whole entry): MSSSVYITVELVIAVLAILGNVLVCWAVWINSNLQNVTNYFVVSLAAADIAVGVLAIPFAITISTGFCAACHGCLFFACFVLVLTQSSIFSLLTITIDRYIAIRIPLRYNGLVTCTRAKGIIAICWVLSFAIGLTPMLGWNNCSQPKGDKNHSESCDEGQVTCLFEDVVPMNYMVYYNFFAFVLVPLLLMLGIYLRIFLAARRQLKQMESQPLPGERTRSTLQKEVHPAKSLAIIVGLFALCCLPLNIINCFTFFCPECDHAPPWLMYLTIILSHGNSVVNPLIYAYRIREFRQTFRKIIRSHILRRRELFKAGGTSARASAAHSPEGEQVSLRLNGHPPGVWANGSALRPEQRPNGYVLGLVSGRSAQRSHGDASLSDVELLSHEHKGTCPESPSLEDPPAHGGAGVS
From the text: as §3

[10] = molecular target: A1 AdoR (Cavia porcellus (Guinea pig), UniProt P47745)
Sequence of A1 AdoR (Cavia porcellus (Guinea pig), UniProt P47745) (P47745 whole entry): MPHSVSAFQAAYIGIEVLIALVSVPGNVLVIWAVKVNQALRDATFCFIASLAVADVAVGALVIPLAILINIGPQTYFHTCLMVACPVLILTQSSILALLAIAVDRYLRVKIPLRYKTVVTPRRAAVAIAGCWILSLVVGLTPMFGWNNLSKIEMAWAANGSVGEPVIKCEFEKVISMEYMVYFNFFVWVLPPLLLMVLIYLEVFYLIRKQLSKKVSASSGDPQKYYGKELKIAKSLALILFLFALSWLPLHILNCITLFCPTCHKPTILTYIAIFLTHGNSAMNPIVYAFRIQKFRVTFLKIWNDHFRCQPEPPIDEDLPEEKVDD
Experimental: as §1, §2, §3

[11] = molecular target: human A2AAdoR (Homo sapiens (Human), UniProt P29274); settings: conclusion of Example 15
Sequence of human A2AAdoR (P29274 whole entry): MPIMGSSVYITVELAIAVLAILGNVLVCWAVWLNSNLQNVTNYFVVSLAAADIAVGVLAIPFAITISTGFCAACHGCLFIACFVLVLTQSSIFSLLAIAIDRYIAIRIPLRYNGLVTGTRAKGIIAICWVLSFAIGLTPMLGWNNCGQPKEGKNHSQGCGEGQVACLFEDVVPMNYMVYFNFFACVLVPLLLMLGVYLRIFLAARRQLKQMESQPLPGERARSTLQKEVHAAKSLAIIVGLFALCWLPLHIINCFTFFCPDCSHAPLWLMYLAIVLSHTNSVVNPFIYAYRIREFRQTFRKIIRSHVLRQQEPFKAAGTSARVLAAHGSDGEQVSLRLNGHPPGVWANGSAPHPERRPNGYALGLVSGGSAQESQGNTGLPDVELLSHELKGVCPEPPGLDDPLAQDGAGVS
Experimental: Adenosine deaminase was purchased from Boehringer Mannheim Biochemicals Indianapolis, Id., U.S.A). [^3H]ZM241385 (Lot No. 1) was purchased from Tocris Cookson Ltd (Langford, Bristol, UK).
At the end of incubation, bound and free radioligands were separated by filtration through Whatman GF/C glass fiber filters using a Brandel tissue harvester (Gaithersburg, Md.). Triplicate determinations were performed for each concentration of the competing agent.
The affinity ([…]) of various CVT compounds for the A1 and A2A adenosine receptor were determined by their potency to compete for [^3H]CPX (A1) or [^3H]ZM241385 (A2A) binding sites on membranes derived from CHO-hA1AdoR, PC12 or HEK-HA2AAdoR cells. […] The affinity of selected compounds for A2B and A3 receptors were assessed by their potencies to compete for [^3H] […] ABMECA (A3) binding sites on membranes derived from HEK-hA2BAdoR and CHO-hA3AdoR cells, respectively.

[12] = pig striatal membranes, displacement of tritiated ZM 241385 (2 nM), 23° C. 2 h; read-out: A2a Ki

SMILES: CCNC(=O)[C@H]1O[C@@H](n2cnc3c(N)nc(NCCc4ccc(CCC(=O)O)cc4)nc32)[C@H](O)[C@@H]1O [CGS21680]
t 0.5 (min), time to 50% reversal of the increase in coronary blood flow ([1]; 2 μg/kg/min): 9.7 ± 0.8 min | t 0.9 (min), time to 90% reversal of the increase in coronary blood flow ([1]; 2 μg/kg/min): 21.4 ± 0.8 min

SMILES: OC[C@H]1O[C@@H](n2cnc3c(N[C@@H]4CCOC4)ncnc32)[C@H](O)[C@@H]1O [CVT510, 2-{6-[((3R)oxolan-3-yl)amino]purin-9-yl}(4S,3R,5R)-(hydroxymethyl)oxolane-3,4-diol, reference compound]
Effect on A-V nodal conduction time [2]: significantly prolonged

t 0.5 (min), time to 50% reversal of the increase in coronary conductance [3]: 14.83 ± 2.1 min | t 0.9 (min), time to 90% reversal of the increase in coronary conductance [3]: 15.0 ± 0.8 min | Ki [4, 12]: 10 to 1000 nM
SMILES: CCOC(=O)c1cnn(-c2nc(N)c3ncn([C@@H]4O[C@H](CO)[C@@H](O)[C@H]4O)c3n2)c1 [Compound 12, Ethyl 1-{9-[(4S,2R,3R,5R)-3,4-dihydroxy-5-(hydroxymethyl)oxolan-2-yl]-6-aminopurin-2-yl}pyrazole-4-carboxylate]

Ki [4, 12]: 1000 to 10000 nM
SMILES: COc1ccc(-c2cnn(-c3nc(N)c4ncn(C5O[C@H](CO)[C@@H](O)[C@H]5O)c4n3)c2)cc1 (stereo partly drawn) [Compound 14, (4S,2R,3R,5R)-2-{6-Amino-2-[4-(4-metboxyphenyl)pyrazolyl]purin-9-yl}-5-(hydroxymethyl)oxolane-3,4-diol]

Ki [4, 12]: 1000 to 10000 nM
SMILES: Cc1ccc(-c2cnn(-c3nc(N)c4ncn(C5O[C@H](CO)[C@@H](O)[C@H]5O)c4n3)c2)cc1 (stereo partly drawn) [Compound 15]

SMILES: CNC(=O)c1cnn(-c2nc(N)c3ncn(C4O[C@H](CO)[C@@H](O)[C@H]4O)c3n2)c1 (stereo partly drawn) [Compound 16, (1-{9-[(4S,2R,3R,5R)-3,4-dihydroxy-5-(bydroxymethyl)oxolan-2-yl]-6-aminopurin-2-yl}pyrazol-4-yl)-N-methylcarboxamide]
Decrease of specific binding of [3H]CPX (HEK-hA2BAdoR) [5]: 20% | Decrease of specific binding of [125I]IBMECA (CHO-hA3AdoR) [6]: 22% | Ki ([4]; read-out: A2a Ki; pig striatal membranes, displacement of tritiated ZM 241385 (2 nM), 23° C. 2 h): 1000 to 10000 nM | Ki ([7]; read-out: Binding Affinity Ki, CHO-hA1AR): > 16500 nM | Ki ([7]; read-out: Binding Affinity pKi ± SEM, CHO-hA1AR (converted)): 25700 nM | EC50 [8]: 6.4 ± 0.6 nM | EC50 [9]: 18.6 ± 6 nM | Effect on A-V nodal conduction time [2]: did not prolong | EC50 [10]: 4000 ± 2300 nM | A2A affinity in words [11]: low affinity A2A agonist

Ki [4, 12]: > 100000 nM
SMILES: Nc1nc(-n2cc(C(=O)O)cn2)nc2c1ncn2[C@@H]1O[C@H](CO)[C@@H](O)[C@H]1O [Compound 17, 1-{9-[(4S,2R,3R,5R)-3,4-dihydroxy-5-(hydroxymethyl)oxolan-2-yl]-6-aminopurin-2-yl}pyrazole-4-carboxylic acid]

Ki [4, 12]: 10 to 1000 nM
SMILES: CN(C)C(=O)c1cnn(-c2nc(N)c3ncn([C@@H]4O[C@H](CO)[C@@H](O)[C@H]4O)c3n2)c1 [Compound 18, (1-{9-[(4S,2R,3R,5R)-3,4-dihydroxy-5-(hydroxymethyl)oxolan-2-yl]-6-aminopurin-2-yl}pyrazol-4-yl)-N,N-dimethylcarboxamide]

Ki [4, 12]: 10 to 1000 nM
SMILES: CCNC(=O)c1cnn(-c2nc(N)c3ncn(C4O[C@H](CO)[C@@H](O)[C@H]4O)c3n2)c1 (stereo partly drawn) [Compound 19, (1-{9-[(4S,2R,3R,5R)-3,4-dihydroxy-5-(hydrozymethyl)oxolan-2-yl]-6-aminopurin-2-yl}pyrazol-4-yl)-N-ethylcarboxamide]

Ki [4, 12]: 10 to 1000 nM
SMILES: NC(=O)c1cnn(-c2nc(N)c3ncn([C@@H]4O[C@H](CO)[C@@H](O)[C@H]4O)c3n2)c1 [Compound 20, 1-{9-[(4S,2R,3R,5R)-3,4-dihydroxy-5-(hydroxymethyl)oxolan-2-yl]-6-aminopurin-2-yl}pyrazole-4-carboxamide]

Ki [4, 12]: 10 to 1000 nM
SMILES: Nc1nc(-n2cc(C(=O)NC3CCCC3)cn2)nc2c1ncn2[C@@H]1O[C@H](CO)[C@@H](O)[C@H]1O [Compound 21, (1-{9-[(4S,2R,3R,5R)-3,4-dihydroxy-5-(hydroxymethyl)oxolan-2-yl]-6-aminopurin-2-yl}pyrazol-4-yl)-N-(cyclopentyl)carboxamide]

Ki [4, 12]: 10 to 1000 nM
SMILES: Nc1nc(-n2cc(C(=O)NCc3ccc(Cl)cc3)cn2)nc2c1ncn2[C@@H]1O[C@H](CO)[C@@H](O)[C@H]1O [Compound 22, (1-{9-[(4S,2R,3R,5R)-3,4-dihydroxy-5-(hydroxymethyl)oxolan-2-yl]-6-aminopurin-2yl}pyrazol-4yl)-N-[(4-chlorophenyl)methyl]carboxamide]

t 0.5 (min), time to 50% reversal of the increase in coronary conductance [3]: 28.6 ± 1.1 min | t 0.9 (min), time to 90% reversal of the increase in coronary conductance [3]: 32.8 ± 3.1 min
SMILES: CCCCC#Cc1nc(N)c2ncn([C@@H]3O[C@H](C(=O)NCC)[C@@H](O)[C@H]3O)c2n1 [HENECA, N-ethyl-1′-deoxy-1′-(6-amino-2-hexynyl-9H-purin9-yl)-beta-D-ribofuranuronamide]

SMILES: Nc1nc(N/N=C/C2CCCCC2)nc2c1ncn2[C@@H]1O[C@H](CO)[C@@H](O)[C@H]1O [WRC-0470, 2-cyclohexylmethylidenehydrazino-adenosine]
t 0.5 (min), time to 50% reversal of the increase in coronary blood flow ([1]; 1 μg/kg/min): 9.5 ± 0.8 min | t 0.9 (min), time to 90% reversal of the increase in coronary blood flow ([1]; 1 μg/kg/min): 22.5 ± 1.6 min

t 0.5 (min), time to 50% reversal of the increase in coronary conductance [3]: 17.7 ± 1.0 min | t 0.9 (min), time to 90% reversal of the increase in coronary conductance [3]: 28.5 ± 4.0 min
SMILES: CCCCCCC#Cc1nc(N)c2ncn([C@@H]3O[C@H](CO)[C@@H](O)[C@H]3O)c2n1 [YT-146, 2-alkynyladenosine]
t 0.5 (min), time to 50% reversal of the increase in coronary blood flow ([1]; 1 μg/kg/min): 17.8 ± 3.4 min | t 0.9 (min), time to 90% reversal of the increase in coronary blood flow ([1]; 1 μg/kg/min): 32.9 ± 5.6 min | CBF (“Fold Increase”) ([1]; 1 μg/kg/min intracoronary infusion): 3.44 ± 0.47 fold
